# Source: the METLIN SMRT retention time set (Domingo-Almenara et al. 2019)
# Assay: gradient 5% acetonitrile 3 min, to 50% in 2 min, to 85% in 15 min, held 3 min, 100 µL/min
# Conditions: column: Zorbax Extend-C18 2.1 x 50 mm; eluents: water / acetonitrile, 0.1% formic acid
# Procedure, shortened: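 In both positive and negative ionization mode, a quadrupole time-of-flight mass spectrometer coupled to HPLC analyzed pure standards run in mixtures of ~100 molecules. The Zorbax Extend-C18 column (2.1 × 50 mm, 1.8 μm) was operated at 100 μL/min with water and acetonitrile, each containing 0.1% formic acid. The dead volume was 40 μL and the dwell volume 900 μL. Retention time came from adduct peaks that were computationally picked and individually inspected by hand.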
row,Structure (SMILES),RP-LC retention time
1,CCc1noc(-c2ccc(-n3cnc(C(=O)N4CCOCC4)c3)nc2)n1,691 s
2,Cc1ccn2c(Nc3ccc4c(c3)OCO4)c(-c3ccc(N(C)C)cc3)nc2c1,734 s
3,CN(C)C(=O)c1csc(S(=O)(=O)N2CCC(C(=O)NC3CCCCCC3)CC2)c1,783 s
4,O=C(Nc1cnc(N2CCCCCC2)nc1)C1CCC1,778 s
5,CC1=NS(=O)(=O)N(C)C=C1C(=O)OCc1nc(-c2cccc(Cl)c2)no1,1010 s
6,CC1(CNS(=O)(=O)c2ccc(F)cc2F)CCOCC1,779 s
7,COc1cc(NC(=O)C2CCCN(c3nnc4ccccn34)C2)cc(OC)c1OC (configuration not stated),634 s
8,O=C1NCCCCCN(C(=O)CC2CCCCC2)[C@@H]2C[C@@H](C(=O)N3CCc4ccccc4C3)C[C@H]12,933 s
9,Cc1nnc(CNC(=O)CCn2nnc3ccccc3c2=O)o1,566 s
10,CN(C)c1ccc(C(=O)N2CCN(c3cc(-c4cccs4)[nH]n3)CC2)cc1,714 s
11,COc1ccccc1-c1noc(C2CCCN2C(=O)Nc2ccc(F)c(Cl)c2)n1 (configuration not stated),942 s
12,CC1CCN(c2cc3c(cc2NC(=O)C(C)(C)C)n(C)c(=O)c(=O)n3C)CC1,1010 s
13,Cc1nc(C)c(C(=O)N2CCCCCNC(=O)[C@@H]3CCC[C@@H]32)s1,638 s
14,Cc1cc(C(=O)N[C@@H]2CN(c3ncccn3)C[C@H]2CO)ccn1,529 s
15,CC(C)c1ccc(NC(=O)Cn2nc(N3CCCC3)c3ccccc3c2=O)cc1,1090 s
16,CCc1cccc(C)c1NC(=O)Cn1ncc2c(N3CCN(c4ccccn4)CC3)ncnc21,570 s
17,COc1ccc(/C=C/c2cc3c(cc2OC)OCCO3)cc1O,938 s
18,O=C(Nc1ccc2c(c1)OCO2)C1CCCN(c2ncc(-c3ccc(F)cc3)cn2)C1 (configuration not stated),1060 s
19,Cc1nc(N2CCCC2)c2c(C(=O)Nc3ccc(Cl)cc3)c(C)oc2n1,848 s
20,Cc1cc(-c2nnc(-c3ccc(F)cc3)o2)c(C)n1CC(=O)N1CCCCC1,877 s
21,CCCN(Cc1ccc(Cl)cc1)Cc1cc(=O)n2cc(C)ccc2n1,674 s
22,CCOc1ccc(N2CCCCn3c2nc2c3c(=O)n(CC(C)C)c(=O)n2C)cc1,1110 s
23,CCn1c(=O)c2cc(C(=O)Nc3ccc(C(F)(F)F)cc3)nn2c2ccccc21,1090 s

row,Structure (SMILES),RP-LC retention time
1,CN(C(=O)Cn1cnc2c(-c3ccccc3)csc2c1=O)c1ccc(F)cc1,938 s
2,CCOc1ccc(-c2noc(Cn3c(=O)n(-c4ccccc4C)c(=O)c4sccc43)n2)cc1OC,960 s
3,COc1ccccc1-c1noc(C2CCCN2C(=O)c2cccc(OC)c2OC)n1 (configuration not stated),993 s
4,Cc1nc2ccccn2c(=O)c1CCN1CCC(C(=O)c2ccc(F)cc2)CC1,643 s
5,COc1cccc(CNC(=O)CSc2nccnc2N2CCSCC2)c1OC,824 s
6,Cn1nc(-c2nc(C3CC3)no2)c2c1CCN(S(=O)(=O)c1ccc(F)cc1)C2,925 s
7,O=C(CN1CCN(C(=O)c2cnn3c(-c4ccc5c(c4)OCO5)ccnc23)CC1)N1CCCCC1,611 s
8,Cc1ccc(-c2nsc3c(=O)n(C)c(SCC(=O)N4CCOc5ccc(C)cc54)nc23)cc1,1220 s
9,COc1cccc(N2CCN(C(=O)c3cc(NC(=O)C(C)C)cc4nc(C)ccc34)CC2)c1,681 s
10,Cc1ccc(C)c(NC(=O)Cn2nc3c(N4CCC(C)CC4)nccn3c2=O)c1,864 s
11,O=C(NC(c1ccccc1)c1nnc(N2CCCCC2)o1)c1ccc2c(c1)OCO2 (configuration not stated),847 s
12,CCn1c(CCNC(=O)c2ccccc2F)nc2cccnc21,602 s
13,Cc1oc2c(c1C(=O)NCCc1ccccc1)C1=NC(C)(C)CN1C=N2,653 s
14,CC1=NS(=O)(=O)N(Cc2ccccc2)C=C1C(=O)OCc1cccc(C)c1,1140 s
15,CC(=O)c1ccc(NC(=O)c2c[nH]c3ncccc23)cc1,652 s
16,O=C(Cc1nnc2c(-c3nc(C4CC4)no3)cccn12)N1CCCCCC1,674 s
17,CCOC(=O)N1CCC(NC(=O)C(=O)NCc2cccs2)CC1,692 s
18,Cn1c(=O)c(N2CCC(C(=O)NCCc3ccco3)CC2)nc2ccccc21,794 s
19,COc1ccc(OC)c(CNC(=O)COc2nc(C)nc3oc(C)c(C)c23)c1,866 s
20,CCc1cc(-c2csc(S(=O)(=O)N3CC=C(c4ccccc4)CC3)c2)on1,1170 s
21,CCOc1ccc(NC2=NS(=O)(=O)C(c3ccc(OC)cc3)=C2C)cc1,940 s
22,CCC(C(=O)NCCCN1CCCCC1)n1nc(C)c2sc3ccccc3c2c1=O (configuration not stated),691 s
23,O=C(NCC1CCN(c2ncccn2)CC1)C(=O)NCC(F)(F)F,626 s

row,Structure (SMILES),RP-LC retention time
1,CCOC(=O)Cc1c(C)nc2cc(-c3ccc(OC)cc3)nn2c1C,980 s
2,Cc1cc(C(=O)Nc2ccc(C)c(C)c2)n(-c2ccccc2)n1,961 s
3,CCOc1ccc(C(=O)N2CCN(c3cc(-c4cccs4)[nH]n3)CC2)cc1,812 s
4,Nc1nc(Cl)cc(Nc2ccccc2Cl)n1,845 s
5,Cc1noc(C)c1CNC(=O)c1ccc2[nH]ccc2c1,574 s
6,CSc1ccc(NC(=O)N2CCC(c3cc(N)on3)CC2)cc1,713 s
7,COC(=O)Cn1c(C2CC(=O)N(c3cccc(OC)c3)C2)nc2ccccc21 (configuration not stated),718 s
8,Cc1ccc(-c2nc(Cn3cccc3C(=O)NC3CCCC3)no2)cc1,1050 s
9,COCC(C)NC(=O)c1ccc2c(c1)CCCN2S(C)(=O)=O (configuration not stated),679 s
10,CCc1cc(C(=O)Nc2ccc(F)cc2)nc2ccnn12,997 s
11,Cc1cc(C)n(-c2ccnc(N3CCC(C(=O)NC4CC4)CC3)n2)n1,693 s
12,Cc1cc(C)c(Cn2cnc3ccccc32)c(C)c1,611 s
13,CCn1c(=O)n(CCN2CCOCC2)c(=O)c2cnc(-c3ccc(Cl)cc3)nc21,709 s
14,COc1ccccc1CCC(=O)N1CCC[C@@H]1C(=O)NCCc1csc(-c2ccccc2)n1,891 s
15,CN1c2cc(C(=O)NCc3ccc(OC(F)(F)F)cc3)ccc2C(=O)N2CCCCC21 (configuration not stated),932 s
16,CCN1C(=O)C2CCC(=O)N2c2ccc(C(=O)NC3CCCC3)cc21 (configuration not stated),692 s
17,O=C(c1nnc(-c2ccc(S(=O)(=O)N3CCOCC3)cc2)o1)N1CCC2(CC1)OCCO2,730 s
18,COC(=O)C1=C(C)NC2=C(C(=O)CC(C)(C)C2)C1c1cc(OC)c(OC)c(OC)c1 (configuration not stated),684 s
19,CC(C)c1c(C2CCN(C(=O)c3cc(F)ccc3F)CC2)noc1N,774 s
20,O=C1C(N2CCN(S(=O)(=O)c3ccc(F)cc3F)CC2)CCN1Cc1cccnc1 (configuration not stated),542 s
21,CCCn1cc(CCNS(=O)(=O)c2ccc(Cl)cc2)c2cccnc21,891 s
